Experimental data reported in ChEMBL document CHEMBL4190379 (Bioorg Med Chem Lett, 2018).

Key:
[1] = biological target: Transcription initiation factor TFIID subunit 1 (Homo sapiens) (UniProt P21675); assay: Binding affinity to human TAF1 bromodomain 2 expressed in bacterial system assessed as remaining binding level at 1 uM by BROMOscan assay relative to control
[2] = biological target: Transcription initiation factor TFIID subunit 1-like (Homo sapiens) (UniProt Q8IZX4); assay: Binding affinity to human TAF1L bromodomain 2 expressed in bacterial system assessed as remaining binding level at 1 uM by BROMOscan assay relative to control
[3] = biological target: T1, Bromodomain-containing protein 7 (Homo sapiens) (UniProt Q9NPI1); assay: Binding affinity to human BRD7 expressed in mammalian system assessed as remaining binding level at 1 uM by BROMOscan assay relative to control
T1 sequence (whole entry): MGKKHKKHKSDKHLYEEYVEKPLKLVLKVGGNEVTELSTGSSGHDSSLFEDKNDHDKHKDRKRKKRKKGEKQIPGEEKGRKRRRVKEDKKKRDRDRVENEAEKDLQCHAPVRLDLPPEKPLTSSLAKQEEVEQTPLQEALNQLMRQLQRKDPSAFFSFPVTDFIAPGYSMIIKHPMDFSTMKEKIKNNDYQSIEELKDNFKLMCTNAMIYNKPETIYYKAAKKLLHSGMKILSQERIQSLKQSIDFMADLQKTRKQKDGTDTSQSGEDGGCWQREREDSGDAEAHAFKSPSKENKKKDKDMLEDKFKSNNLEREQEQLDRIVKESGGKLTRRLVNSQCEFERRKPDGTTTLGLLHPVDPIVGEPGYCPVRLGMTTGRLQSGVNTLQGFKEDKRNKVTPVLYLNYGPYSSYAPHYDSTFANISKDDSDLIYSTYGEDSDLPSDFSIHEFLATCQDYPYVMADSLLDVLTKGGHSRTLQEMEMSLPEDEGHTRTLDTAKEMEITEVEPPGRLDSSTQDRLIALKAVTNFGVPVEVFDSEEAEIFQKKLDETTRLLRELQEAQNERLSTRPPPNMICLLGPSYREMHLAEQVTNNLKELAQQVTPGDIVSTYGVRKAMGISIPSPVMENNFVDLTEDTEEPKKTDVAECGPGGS

[4] = biological target: T2, ATPase family AAA domain-containing protein 2B (Homo sapiens) (UniProt Q9ULI0); assay: Binding affinity to human ATAD2B expressed in bacterial system assessed as remaining binding level at 1 uM by BROMOscan assay relative to control
T2 sequence (whole entry): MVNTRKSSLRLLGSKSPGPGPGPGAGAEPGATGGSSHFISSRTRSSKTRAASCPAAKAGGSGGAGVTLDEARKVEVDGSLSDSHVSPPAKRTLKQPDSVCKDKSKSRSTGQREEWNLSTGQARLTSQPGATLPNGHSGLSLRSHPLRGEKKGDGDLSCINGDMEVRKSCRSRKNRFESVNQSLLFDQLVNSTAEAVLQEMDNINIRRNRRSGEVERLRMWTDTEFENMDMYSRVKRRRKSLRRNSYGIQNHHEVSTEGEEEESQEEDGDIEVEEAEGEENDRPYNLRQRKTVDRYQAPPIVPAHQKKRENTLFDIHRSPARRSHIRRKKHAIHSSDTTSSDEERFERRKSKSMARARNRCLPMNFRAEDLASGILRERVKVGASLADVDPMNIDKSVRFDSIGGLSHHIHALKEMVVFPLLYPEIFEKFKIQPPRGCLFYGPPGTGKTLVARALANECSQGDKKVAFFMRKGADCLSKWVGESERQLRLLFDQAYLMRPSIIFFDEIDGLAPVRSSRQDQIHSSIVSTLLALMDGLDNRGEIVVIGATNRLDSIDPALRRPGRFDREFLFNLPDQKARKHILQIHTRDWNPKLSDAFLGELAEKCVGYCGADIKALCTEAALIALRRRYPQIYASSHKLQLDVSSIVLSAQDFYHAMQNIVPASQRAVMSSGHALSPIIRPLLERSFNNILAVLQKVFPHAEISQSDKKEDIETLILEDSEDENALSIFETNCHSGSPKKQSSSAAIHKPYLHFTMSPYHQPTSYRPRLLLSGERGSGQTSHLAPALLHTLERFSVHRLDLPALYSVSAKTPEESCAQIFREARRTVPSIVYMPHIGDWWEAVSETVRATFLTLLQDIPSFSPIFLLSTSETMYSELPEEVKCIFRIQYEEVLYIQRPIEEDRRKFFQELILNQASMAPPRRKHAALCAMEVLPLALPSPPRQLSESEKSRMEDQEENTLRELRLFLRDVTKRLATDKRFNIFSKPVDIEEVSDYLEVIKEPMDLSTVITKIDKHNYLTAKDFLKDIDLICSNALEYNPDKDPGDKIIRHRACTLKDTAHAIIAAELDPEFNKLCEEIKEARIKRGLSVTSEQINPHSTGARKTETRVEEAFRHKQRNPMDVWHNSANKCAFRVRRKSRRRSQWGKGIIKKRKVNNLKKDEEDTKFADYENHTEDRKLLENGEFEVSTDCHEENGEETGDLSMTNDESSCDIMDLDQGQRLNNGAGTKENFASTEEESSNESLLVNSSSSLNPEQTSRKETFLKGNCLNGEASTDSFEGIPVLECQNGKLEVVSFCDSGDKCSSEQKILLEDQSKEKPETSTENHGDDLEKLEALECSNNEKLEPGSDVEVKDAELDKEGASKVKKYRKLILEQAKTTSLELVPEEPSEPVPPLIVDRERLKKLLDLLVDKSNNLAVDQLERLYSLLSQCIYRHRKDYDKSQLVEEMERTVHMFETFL

[5] = Permeability of the compound by PAMPA method; type: ADME; conditions: read-out: permeability
[6] = biological target: Bromodomain-containing protein 2 (Homo sapiens, UniProt P25440); assay: Binding affinity to BRD2 bromodomain 1 to 2 (G73 to A560 amino acids) (unknown origin) using Alexa647-labeled BET-inhibitor as fluorescent probe by bromodomain TR-FRET binding assay
[7] = biological target: Bromodomain and WD repeat-containing protein 1 (Homo sapiens) (UniProt Q9NSI6); assay: Binding affinity to human WDR9 bromodomain 2 expressed in bacterial system assessed as remaining binding level at 1 uM by BROMOscan assay relative to control
[8] = biological target: T3, Bromodomain-containing protein 4 (Homo sapiens, UniProt O60885); assay: Binding affinity to His-tagged BRD4 bromodomain 1 to 2 (K57 to K550 amino acids) (unknown origin) using Alexa647-labeled BET-inhibitor as fluorescent probe by bromodomain TR-FRET binding assay; type: single protein
[9] = biological target: T3, Bromodomain-containing protein 4; assay: Binding affinity to BRD4 bromodomain 1 (K57 to E168 amino acids) (unknown origin) using Alexa647-labeled BET-inhibitor as fluorescent probe by bromodomain TR-FRET binding assay
[10] = tested on: Mus musculus; assay: Unbound clearance in mouse at 10 mg/kg, po; type: ADME, organism-based; conditions: in vivo
[11] = biological target: Bromodomain-containing protein 3 (Homo sapiens, UniProt Q15059); assay: Binding affinity to BRD3 bromodomain 1 to 2 (P24 to P416 amino acids) (unknown origin) using Alexa647-labeled BET-inhibitor as fluorescent probe by bromodomain TR-FRET binding assay

Transcription initiation factor TFIID subunit 1-like (Homo sapiens), sequence (Q8IZX4 whole entry): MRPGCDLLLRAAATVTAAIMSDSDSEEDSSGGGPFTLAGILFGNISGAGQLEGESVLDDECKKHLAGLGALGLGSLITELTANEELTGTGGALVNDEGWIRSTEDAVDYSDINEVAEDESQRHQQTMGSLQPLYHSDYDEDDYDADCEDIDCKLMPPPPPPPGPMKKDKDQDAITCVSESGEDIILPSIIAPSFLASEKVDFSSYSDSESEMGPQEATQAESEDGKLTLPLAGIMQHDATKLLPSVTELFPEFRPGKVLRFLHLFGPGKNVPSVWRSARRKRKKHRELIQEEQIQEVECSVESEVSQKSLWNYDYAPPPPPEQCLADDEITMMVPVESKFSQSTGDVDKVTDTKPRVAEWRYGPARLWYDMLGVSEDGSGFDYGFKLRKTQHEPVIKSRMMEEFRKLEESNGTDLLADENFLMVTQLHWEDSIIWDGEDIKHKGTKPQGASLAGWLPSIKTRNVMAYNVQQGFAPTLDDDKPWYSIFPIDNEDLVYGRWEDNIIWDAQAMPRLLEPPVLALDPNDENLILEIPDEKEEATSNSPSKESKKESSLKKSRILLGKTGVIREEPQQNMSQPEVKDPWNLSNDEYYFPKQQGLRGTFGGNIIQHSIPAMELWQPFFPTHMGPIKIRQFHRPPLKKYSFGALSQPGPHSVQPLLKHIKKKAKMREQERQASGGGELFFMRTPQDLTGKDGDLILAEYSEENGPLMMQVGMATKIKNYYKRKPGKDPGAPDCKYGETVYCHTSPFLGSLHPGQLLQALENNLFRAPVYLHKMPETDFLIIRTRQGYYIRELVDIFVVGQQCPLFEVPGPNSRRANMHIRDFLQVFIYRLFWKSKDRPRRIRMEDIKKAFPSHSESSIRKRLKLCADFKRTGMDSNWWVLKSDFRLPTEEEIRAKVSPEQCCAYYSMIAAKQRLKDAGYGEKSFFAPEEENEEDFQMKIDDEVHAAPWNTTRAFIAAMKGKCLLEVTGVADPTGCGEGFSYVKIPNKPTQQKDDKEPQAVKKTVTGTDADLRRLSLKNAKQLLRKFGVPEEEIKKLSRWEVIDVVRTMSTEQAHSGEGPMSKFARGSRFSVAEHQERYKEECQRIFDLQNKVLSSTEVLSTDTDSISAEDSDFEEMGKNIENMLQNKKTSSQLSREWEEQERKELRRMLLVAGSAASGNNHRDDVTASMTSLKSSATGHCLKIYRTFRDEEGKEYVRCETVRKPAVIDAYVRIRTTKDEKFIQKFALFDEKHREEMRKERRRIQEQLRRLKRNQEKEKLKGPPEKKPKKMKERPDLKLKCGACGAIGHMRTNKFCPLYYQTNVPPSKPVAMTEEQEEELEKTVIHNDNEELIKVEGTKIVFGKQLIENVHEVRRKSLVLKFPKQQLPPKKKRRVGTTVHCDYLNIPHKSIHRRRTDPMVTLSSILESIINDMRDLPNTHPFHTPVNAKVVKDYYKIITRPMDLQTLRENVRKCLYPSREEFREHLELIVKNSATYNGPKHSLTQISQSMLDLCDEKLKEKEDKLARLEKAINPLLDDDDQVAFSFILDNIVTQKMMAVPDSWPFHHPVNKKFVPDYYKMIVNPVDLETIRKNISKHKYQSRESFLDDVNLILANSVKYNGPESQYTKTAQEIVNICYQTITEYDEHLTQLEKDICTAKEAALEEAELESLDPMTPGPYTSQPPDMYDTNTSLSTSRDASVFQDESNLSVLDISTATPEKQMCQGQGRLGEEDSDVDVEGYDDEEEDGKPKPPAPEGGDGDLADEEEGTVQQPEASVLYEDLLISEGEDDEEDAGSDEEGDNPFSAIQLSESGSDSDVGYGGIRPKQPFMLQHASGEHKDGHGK
Transcription initiation factor TFIID subunit 1 (Homo sapiens), sequence (P21675 whole entry): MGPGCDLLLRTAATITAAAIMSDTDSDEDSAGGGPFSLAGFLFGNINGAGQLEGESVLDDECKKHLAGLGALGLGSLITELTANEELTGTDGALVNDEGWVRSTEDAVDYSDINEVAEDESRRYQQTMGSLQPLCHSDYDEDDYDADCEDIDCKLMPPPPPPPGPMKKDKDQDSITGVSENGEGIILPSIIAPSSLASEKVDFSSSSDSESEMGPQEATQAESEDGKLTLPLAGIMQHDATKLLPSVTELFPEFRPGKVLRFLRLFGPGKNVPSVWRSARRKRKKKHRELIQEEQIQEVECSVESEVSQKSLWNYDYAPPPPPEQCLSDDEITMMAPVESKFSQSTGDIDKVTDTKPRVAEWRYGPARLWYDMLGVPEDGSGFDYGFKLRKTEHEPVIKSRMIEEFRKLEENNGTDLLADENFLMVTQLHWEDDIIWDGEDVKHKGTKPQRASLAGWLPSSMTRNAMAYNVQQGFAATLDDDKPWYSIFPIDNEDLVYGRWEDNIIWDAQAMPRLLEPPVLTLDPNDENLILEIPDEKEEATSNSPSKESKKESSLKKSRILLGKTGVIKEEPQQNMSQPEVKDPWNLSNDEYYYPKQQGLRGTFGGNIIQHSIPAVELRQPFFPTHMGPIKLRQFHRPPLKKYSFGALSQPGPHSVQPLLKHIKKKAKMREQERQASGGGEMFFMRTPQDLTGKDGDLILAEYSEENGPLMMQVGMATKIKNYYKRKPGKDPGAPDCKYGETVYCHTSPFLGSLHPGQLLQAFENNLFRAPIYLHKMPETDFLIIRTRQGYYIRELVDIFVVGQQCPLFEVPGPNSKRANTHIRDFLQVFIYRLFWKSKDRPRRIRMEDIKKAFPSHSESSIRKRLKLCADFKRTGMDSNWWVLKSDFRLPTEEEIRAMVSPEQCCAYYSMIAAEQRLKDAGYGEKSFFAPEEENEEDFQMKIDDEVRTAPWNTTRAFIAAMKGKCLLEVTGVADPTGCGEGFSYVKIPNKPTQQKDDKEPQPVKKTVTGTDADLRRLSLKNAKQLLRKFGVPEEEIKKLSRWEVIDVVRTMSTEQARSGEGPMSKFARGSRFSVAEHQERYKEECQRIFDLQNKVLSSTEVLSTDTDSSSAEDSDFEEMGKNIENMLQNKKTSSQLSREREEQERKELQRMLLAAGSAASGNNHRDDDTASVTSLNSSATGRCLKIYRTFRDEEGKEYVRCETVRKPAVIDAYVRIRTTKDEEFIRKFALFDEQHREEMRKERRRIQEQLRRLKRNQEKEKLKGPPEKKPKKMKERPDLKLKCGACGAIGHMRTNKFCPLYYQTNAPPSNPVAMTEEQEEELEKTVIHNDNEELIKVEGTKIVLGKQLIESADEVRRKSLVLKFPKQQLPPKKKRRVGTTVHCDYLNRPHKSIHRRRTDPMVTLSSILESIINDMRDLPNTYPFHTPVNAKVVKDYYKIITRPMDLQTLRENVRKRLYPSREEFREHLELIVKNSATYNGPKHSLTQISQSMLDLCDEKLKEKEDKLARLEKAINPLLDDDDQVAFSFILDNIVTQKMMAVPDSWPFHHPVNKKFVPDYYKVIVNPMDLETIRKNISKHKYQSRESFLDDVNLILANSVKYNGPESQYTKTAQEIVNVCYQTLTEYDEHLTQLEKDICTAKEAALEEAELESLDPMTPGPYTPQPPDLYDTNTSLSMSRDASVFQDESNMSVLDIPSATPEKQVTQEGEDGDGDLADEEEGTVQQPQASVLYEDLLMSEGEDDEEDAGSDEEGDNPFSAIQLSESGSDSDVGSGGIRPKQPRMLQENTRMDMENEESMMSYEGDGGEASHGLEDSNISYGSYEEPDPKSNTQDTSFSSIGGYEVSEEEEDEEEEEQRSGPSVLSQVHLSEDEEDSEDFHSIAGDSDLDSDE
Bromodomain-containing protein 2, sequence (P25440 whole entry, the tested form may be a part): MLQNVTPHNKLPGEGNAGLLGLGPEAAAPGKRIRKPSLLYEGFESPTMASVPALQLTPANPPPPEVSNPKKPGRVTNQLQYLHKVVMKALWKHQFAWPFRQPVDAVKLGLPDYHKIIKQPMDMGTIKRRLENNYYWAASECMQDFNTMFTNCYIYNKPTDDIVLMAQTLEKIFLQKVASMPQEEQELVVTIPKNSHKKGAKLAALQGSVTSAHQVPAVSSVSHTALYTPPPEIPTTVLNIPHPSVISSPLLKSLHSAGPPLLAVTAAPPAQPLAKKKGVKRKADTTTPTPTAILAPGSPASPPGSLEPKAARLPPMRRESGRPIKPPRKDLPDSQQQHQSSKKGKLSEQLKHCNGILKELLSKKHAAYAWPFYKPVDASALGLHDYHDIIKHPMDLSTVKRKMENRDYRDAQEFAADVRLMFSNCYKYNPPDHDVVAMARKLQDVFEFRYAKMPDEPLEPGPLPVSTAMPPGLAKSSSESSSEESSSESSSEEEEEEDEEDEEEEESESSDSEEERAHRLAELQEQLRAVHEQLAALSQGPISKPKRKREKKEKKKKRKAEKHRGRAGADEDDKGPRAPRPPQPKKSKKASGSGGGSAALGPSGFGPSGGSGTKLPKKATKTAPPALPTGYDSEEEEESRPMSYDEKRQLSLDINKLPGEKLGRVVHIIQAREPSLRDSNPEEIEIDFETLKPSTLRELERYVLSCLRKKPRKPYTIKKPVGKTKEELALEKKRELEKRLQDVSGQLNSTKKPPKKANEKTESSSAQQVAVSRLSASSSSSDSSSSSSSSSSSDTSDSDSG

| Activity [1] | Activity [2] | Activity [3] | Activity [4] | Papp [5] | Ki [6] | Activity [7] | Ki [8] | Ki [9] | CL free [10] | Ki [11] | SMILES |
| --- | --- | --- | --- | --- | --- | --- | --- | --- | --- | --- | --- |
| 95% | 85% | 100% | 76% | 5.1 ×10⁻⁶ cm/s | 2.6 nM | 100% | 3.3 nM | 1.2 nM | 1300 mL/min/kg | 17 nM | Cn1cc2c3c(c[nH]c(=O)c31)-c1cc(CS(C)(=O)=O)ccc1N(c1ccc(F)cc1)C2 |
| 3.8% | 18% | 92% | 60% | 13 ×10⁻⁶ cm/s | 2.5 nM | 95% | 0.87 nM | 2.6 nM | 750 mL/min/kg | 10 nM | Cn1cc2c3c(c[nH]c3c1=O)CN(c1ccc(F)cc1F)c1ccc(CS(C)(=O)=O)cc1-2 |
| 15% | 32% | 96% | 33% | 6 ×10⁻⁶ cm/s | 0.48 nM | 89% | 0.62 nM | 1.2 nM | 157 mL/min/kg | 10 nM | Cn1cc2c3c(c[nH]c3c1=O)CN(c1ccccn1)c1ccc(CS(C)(=O)=O)cc1-2 |
